# Source: patent US11958814B1, “3-(4-nitrophenyl)-5-((2-isopropyl-5-methylphenoxy)methyl)-1,2,4-oxadiazole as an anti-cancer and antimicrobial compound” (KING FAISAL UNIVERSITY, priority 2023, dated 2024)
# Tests used:
# [1] = tested on: human prostate cancer cells (PC3); assay: Cytotoxicity by SRB assay; type: cell-based; details: 0.01 μM to 100 μM for 72 h
# Text: (§1) The anticancer activity of the described synthesized compounds against highly aggressive androgen-independent metastatic human prostate cancer cells (PC3) and osteosarcoma (MG-63) cells. The human prostate cancer cells (PC3) and human osteosarcoma cells (MG-63) were obtained from Nawah Scientific Inc. (Mokatam, Cairo, Egypt) and cultured in DMEM (Dulbecco's modified eagle's medium), Gibco, USA, supplemented with fetal bovine serum (FBS) at a concentration of 10% and 100 U/mL of penicillin and streptomycin (PS). The Cells were incubated at 37° C. in a humidified environment that contained 5% CO2.
# (§2) Cells were seeded in 96-well plates as aliquots of 100 μL cell suspension and incubated in a complete media for 24 h. afterward, cells were treated with 3-(4-nitrophenyl)-5-((2-isopropyl-5-methylphenoxy)methyl)-1,2,4-oxadiazole at diverse concentrations ranging from 0.01 μM to 100 μM for 72 h. Then, cells were fixed at 4° C. for one hour with 150 μL of 10% trichloroacetic acid (TCA). […] Then, 150 μL of Tris pH 10.5 (10 mM) was added, and the absorbance was measured at 540 nm using a BMG LABTECH®-FLUOstar Omega microplate reader (Ortenberg, Germany). Half maximal inhibitory concentrations (IC50) values were calculated for each experiment using GraphPad Prism 6 software. […]
# (§3) The inhibition was calculated using the following equation: Inhibition %=100−Average Viability
# [2] = tested on: human osteosarcoma cells (MG-63); assay: Cytotoxicity by SRB assay; type: cell-based; details: MG-63 cells, 0.01 μM to 100 μM for 72 h
# Text: as §1, §2, §3
# Pseudomonas aeruginosa = assay: Agar plate disc-diffusion, inhibition zone; type: cell-based; details: 37° C., 48 h
# Method: (§4) The agar plate disc-diffusion method was applied. Sterilized filter papers (6 mm in diameter) were wetted with 10 μL of a solution of 3-(4-nitrophenyl)-5-((2-isopropyl-5-methylphenoxy)methyl)-1,2,4-oxadiazole (3) to be tested, containing 10 mg/mL in DMSO, and the discs were allowed to air dry. The discs were then placed onto the surface of agar plates (nutrient agar for bacteria and Sabouraud's dextrose agar for fungi) seeded with the test organism. Each plate contained 15 mL of the agar medium, previously seeded with 0.2 mL of the broth culture of each organism pregrown for 18 hours. The plates were incubated at 37° C. for 48 h, and 72 h for fungi. The inhibition zones were measured in mm. Discs impregnated with DMSO were used as a control, and its inhibition zone was subtracted from the tested compound actual inhibition zone.
# Escherichia coli = assay: Agar plate disc-diffusion, inhibition zone; type: cell-based; details: 37° C., 48 h
# Method: as §4
# Staphylococcus aureus = assay: Agar plate disc-diffusion, inhibition zone; type: cell-based; details: 37° C., 48 h
# Method: as §4
# Bacillus cereus = assay: Agar plate disc-diffusion, inhibition zone; type: cell-based; details: 37° C., 48 h
# Method: as §4
# [3] = tested on: Chrysosporium keratinophilum; assay: Agar plate disc-diffusion, inhibition zone (antifungal); type: cell-based; details: 72 h for fungi
# Method: as §4
# Aspergillus flavus = assay: as above; type: cell-based; details: 72 h for fungi
# Method: as §4
# different microbes = assay: Antimicrobial screening by agar plate disc-diffusion, overall statement; type: cell-based; details: against different microbes (bacteria and fungi of Tables 1 and 2)
# Method: as §4
# [4] = A = concentration of comp. = 10,000 μL
# [5] = B = concentration of comp. = 30,000 μL
# [6] = C = concentration of comp. = 50,000 μL
# [7] = A = concentration of comp. = 10 mg/mL
# [8] = A = concentration of comp. = 10,000 μg/mL
compound,measurement,setting,value
"Cc1ccc(C(C)C)c(OCc2nc(-c3ccc([N+](=O)[O-])cc3)no2)c1 [3-(4-nitrophenyl)-5-((2-isopropyl-5-methylphenoxy)methyl)-1,2,4-oxadiazole]",antiproliferative activity (in words),[1],excellent antiproliferative activities
same,antiproliferative activity (in words),[2],excellent antiproliferative activities
"O=C(O)c1cn(C2CC2)c2cc(N3CCNCC3)c(F)cc2c1=O [Cip., ciprofloxacin, reference compound]",inhibition zone,Pseudomonas aeruginosa; [4],29 mm
same,inhibition zone,Pseudomonas aeruginosa; [5],30 mm
same,inhibition zone,Pseudomonas aeruginosa; [6],53 mm
same,inhibition zone,Escherichia coli; [4],30 mm
same,inhibition zone,Escherichia coli; [5],39 mm
same,inhibition zone,Escherichia coli; [6],60 mm
same,inhibition zone,Staphylococcus aureus; [7],43 mm
same,inhibition zone,Staphylococcus aureus; [5],44 mm
same,inhibition zone,Staphylococcus aureus; [6],53 mm
same,inhibition zone,Bacillus cereus; [8],29 mm
same,inhibition zone,Bacillus cereus; [5],30 mm
same,inhibition zone,Bacillus cereus; [6],42 mm
same,inhibition zone,[3]; [4],29 mm
same,inhibition zone,[3]; [5],30 mm
same,inhibition zone,[3]; [6],53 mm
same,inhibition zone,Aspergillus flavus; [4],29 mm
same,inhibition zone,Aspergillus flavus; [5],30 mm
same,inhibition zone,Aspergillus flavus; [6],42 mm
"Cc1ccc(C(C)C)c(OCc2nc(-c3ccc([N+](=O)[O-])cc3)no2)c1 [Compound 3, 3-(4-nitrophenyl)-5-((2-isopropyl-5-methylphenoxy)methyl)-1,2,4-oxadiazole]",melting point,,172 to 173 °C
same,inhibition zone,Pseudomonas aeruginosa; [4],26 mm
same,inhibition zone,Pseudomonas aeruginosa; [5],27 mm
same,inhibition zone,Pseudomonas aeruginosa; [6],43 mm
same,inhibition zone,Escherichia coli; [4],27 mm
same,inhibition zone,Escherichia coli; [5],36 mm
same,inhibition zone,Escherichia coli; [6],50 mm
same,inhibition zone,Staphylococcus aureus; [7],18 mm
same,inhibition zone,Staphylococcus aureus; [5],23 mm
same,inhibition zone,Staphylococcus aureus; [6],35 mm
same,inhibition zone,Bacillus cereus; [8],22 mm
same,inhibition zone,Bacillus cereus; [5],25 mm
same,inhibition zone,Bacillus cereus; [6],38 mm
same,inhibition zone,[3]; [4],28 mm
same,inhibition zone,[3]; [5],30 mm
same,inhibition zone,[3]; [6],49 mm
same,inhibition zone,Aspergillus flavus; [4],20 mm
same,inhibition zone,Aspergillus flavus; [5],23 mm
same,inhibition zone,Aspergillus flavus; [6],36 mm
same,antimicrobial activity (in words),different microbes,excellent antimicrobial activities
